Assay results: ChEMBL document CHEMBL1136155, “Search compounds with antimicrobial activity by applying molecular topology to selected quinolones” (Bioorg Med Chem Lett, 2003)
The source made the active and inactive calls. The rule behind the calls is not given here.

Key:
[1] = in vivo; details: eutheria
[2] = test system: Klebsiella aerogenes; test: Activity against Enterobacter aerogenes; assay type: functional
[3] = test system: Proteus mirabilis; test: Antimicrobial activity against Proteus mirabilis;IA is Inactive; assay type: functional, organism-based
[4] = test system: Enterococcus faecalis; test: Antimicrobial activity against Enterococcus faecalis;IA is Inactive; assay type: functional, organism-based
[5] = test system: Pseudomonas aeruginosa; test: Antimicrobial activity against Pseudomonas aeruginosa 108;IA is Inactive; assay type: functional, organism-based
[6] = test system: Escherichia coli; test: Antimicrobial activity against Escherichia coli;IA is Inactive; assay type: functional, organism-based
[7] = test system: Staphylococcus aureus; test: Antimicrobial activity against Staphylococcus aureus;IA is Inactive; assay type: functional, organism-based
[8] = test system: Proteus mirabilis; test: The compound has antimicrobial activity against Proteus mirabilis; Active; assay type: functional, organism-based
[9] = test system: Enterococcus faecalis; test: The compound has antimicrobial activity against Enterococcus faecalis; Active; assay type: functional, organism-based
[10] = test system: Staphylococcus aureus; test: The compound has antimicrobial activity against Staphylococcus aureus; Active; assay type: functional, organism-based

Structure (SMILES) | bioavailability [1] [%] | CMI [2] [mg/L] | also measured
CCn1cc(C(=O)O)c(=O)c2cc(F)c(N3CCNCC3)cc21 [NORFLOXACIN] | 63 | 0.1 | 
CC1CN(c2cc3c(cc2F)c(=O)c(C(=O)O)cn3-c2ccc(F)cc2F)CCN1 (stereo not given) [TEMAFLOXACIN] | 90 | 0.16 | 
CCn1cc(C(=O)O)c(=O)c2cc(F)c(N3CCNCC3)nc21 [ENOXACIN] | 87.4 | 0.16 | 
Nc1ccc(C(=O)Nc2ccc3c(O)c(/N=N/c4ccc(C(=O)Nc5ccc(/N=N/c6ccc7cc(S(=O)(=O)O)cc(S(=O)(=O)O)c7c6)c(O)c5)cc4)c(S(=O)(=O)O)cc3c2)cc1 |  |  | Activity [3]: inactive; Activity [4]: inactive; Activity [5]: inactive; Activity [6]: inactive; Activity [7]: inactive
CC1COc2c(N3CCN(C)CC3)c(F)cc3c(=O)c(C(=O)O)cn1c23 (stereo not given) [OFLOXACIN] | 94.4 | 0.12 | 
CC1=CC(=C(c2cc(C)c(O)c(CN(CC(=O)O)CC(=O)O)c2)c2ccccc2S(=O)(=O)O)C=C(CN(CC(=O)O)CC(=O)O)C1=O |  |  | Activity [4]: inactive; Activity [5]: inactive; Activity [6]: inactive; Activity [7]: inactive; Activity [8]: Active
CCn1cc(C(=O)O)c(=O)c2cc(F)c(N3CCNC(C)C3)c(F)c21 (stereo not given) [LOMEFLOXACIN] | 98 | 0.16 | 
CCn1cc(C(=O)O)c(=O)c2ccc(C)nc21 [NALIDIXIC ACID] | 60 | 3 | Activity [5]: inactive; Activity [9]: Active; Activity [10]: Active; Activity [6]: inactive; Activity [8]: Active
O=C(O)c1cn(C2CC2)c2cc(N3CCNCC3)c(F)cc2c1=O [CIPROFLOXACIN] |  | 0.03 | 
CN1CCN(c2cc3c(cc2F)c(=O)c(C(=O)O)cn3-c2ccc(F)cc2)CC1 [DIFLOXACIN] |  | 0.19 | 
CCn1cc(C(=O)O)c(=O)c2cc(F)c(N3CCN(C)CC3)cc21 [PEFLOXACIN] | 91.2 | 0.12 | 
NC1CCN(c2nc3c(cc2F)c(=O)c(C(=O)O)cn3-c2ccccc2F)C1 (stereo not given) [TUSOFLOXACINE] |  | 0.05 | 
CCn1cc(C(=O)O)c(=O)c2cnc(N3CCNCC3)nc21 [PIPEMIDIC ACID] |  | 2 | 
OCC(O)C(OC1CO1)OC1CO1 (stereo not given) |  |  | Activity [3]: inactive; Activity [4]: inactive; Activity [5]: inactive; Activity [6]: inactive; Activity [7]: inactive
CNn1cc(C(=O)O)c(=O)c2cc(F)c(N3CCN(C)CC3)cc21 [AMIFLOXACIN] |  | 0.11 | 
CCn1cc(C(=O)O)c(=O)c2cc3c(cc21)OCO3 [OXOLINIC ACID] |  | 0.5 | 
